{
  "source": "patent US20240197760A1",
  "about": "“ACTIVATORS OF INTEGRATED STRESS RESPONSE PATHWAY FOR PROTECTION AGAINST FERROPTOSIS” (Burke Neurological Institute, priority 2021, published 2024)",
  "key": {"Creb1, Bdnf, Rbbp4": {"test_system": "Creb1, Bdnf, Rbbp4", "experiment": "Plasticity gene expression by quantitative real time PCR in mouse primary neurons", "type": "cell-based", "protocol": "Primary immature neuronal cultures were prepared from cerebral cortex of E14 embryos (day 14 of gestation) of CD1 mice under sterile conditions. Dissected cortices were incubated at 37° C. for 20 min in EBSS solution containing papain, L-cystine and EDTA, which was activated at 37 °C for 30 min and then was filtered through […] (Millipore, catalog number—SCGP00525). Cortices were then mechanically dissociated by trituration with glass pipettes. The rDNase was added in dissociated cells followed by incubation of these dissociated cells at 37 °C for 3 min. Thereafter, these cells were centrifuged at 2800 rpm for 5 min. Then supernatant was discarded, and cell were resuspended gently in a 5 ml mixture of EBSS and 10/10 solution (4:1 ratio). Then 5 ml of 10/10 solution was added gently on top and these resuspended cells were centrifuged at 2800 rpm for 10 min. Supernatant was again discarded and cells were resuspended in 10 ml MEM, Glutamax supplement (Thermo Fisher Scientific, Catalog number—41090036) containing 10% heat inactivated fetal bovine serum (Thermo Fisher Scientific, Catalog number—16140071), 5% heat inactivated horse serum (Thermo Fisher Scientific, Catalog number—26050088), and 1% penicillin/streptomycin (Thermo Fisher Scientific, Catalog number—15140122). Thereafter, resuspended cells were filtered through 70-micron cell strainer (Thomas Scientific, catalog number—4620F02) followed by their counting through Hemocytometer. Cells were, finally, plated at the density of 1 million cells/ml onto poly-D-Lysine (PDL; Sigma Aldrich, catalog number—P6407-10X5MG) coated pates and placed in CO2-buffered incubators at 37° C.\nTotal RNA was extracted from primary cortical neurons using NucleoSpin RNA II Kit (Clontech, Catalog number—740955-250). Thereafter, using the Taqman RNA-to-Ct, one step kit (Thermo Fisher Scientific, catalog number—4392938) and following the manufacturer's instructions, […] from each sample was mixed with the Taqman® Gene Expression Master Mix and Taqman® Gene Expression Assays for Creb1 (Catalog number—Mm00501607_m1), Bdnf (Catalog number—Mm04230607_s1), Rbbp4 (Catalog number—Mm00771401_g1), Bip (Catalog number—Mm00517691_m1), Trib3 (Catalog number—Mm00454879_m1), and Chac1 (Catalog number—Mm00509926_m1) with FAM labelled probe and Actin with VIC labelled probe all from Thermo Fisher Scientific on an Applied Biosystems 7500 Fast Real Time PCR System. For assessing gene expression of various specific Bdnf exons in mouse primary neurons, two step qPCR was used. Total RNA from primary cortical neurons was extracted using NucleoSpin RNA II Kit (Clontech, Catalog number—740955-250) and a total of 1.5 μg RNA was used to synthesize cDNA with the SuperScript® III First-Strand Synthesis System (Thermo Fisher Scientific, Catalog number—18080051). Quantitative RT-PCR was then performed using SYBR green (Thermo Fisher Scientific, Catalog number—4309155) on an Applied Biosystems 7500 Fast Real Time PCR System. Quantitative levels for all genes were normalized to the housekeeping gene GAPDH and expressed relative to the relevant control samples as fold change. The sequences of primers used in this part of the study were as follows: Bdnf I forward: […] (SEQ ID NO:9) and Bdnf I reverse: […] (SEQ ID NO:10); Bdnf II forward: […] (SEQ ID NO:11) and Bdnf II reverse: […] (SEQ ID NO:12); Bdnf IV forward #2: […] (SEQ ID NO:13) and Bdnf IV reverse #2: […] (SEQ ID NO:14); Bdnf VI forward: […] (SEQ ID NO:15) and Bdnf VI reverse: […] (SEQ ID NO:16); Bdnf VII forward: […] (SEQ ID NO:17) and Bdnf VII reverse: […] (SEQ ID NO:18) Bdnf IX forward: […] (SEQ ID NO:19) and Bdnf IX reverse: […] (SEQ ID NO:20); Gapdh forward #2: […] (SEQ ID NO:21) and Gapdh reverse #2: […] (SEQ ID NO: 22)."}, "ICH mice": {"test_system": "ICH mice", "experiment": "Collagenase-induced intracerebral hemorrhage (ICH), tape removal test", "type": "in vivo, mouse", "conditions": "10 mg/Kg i.p. from 24 h after collagenase, every day for 3 weeks; from day 7 onwards (days 7 and 21 vs saline)", "protocol": "To assess the effect of 2-DG on the Bdnf gene expression, mice were injected with either saline or 2-DG (10 mg/Kg) intraperitoneally for 6 h and then mice were euthanized properly, and hippocampi were dissected out from mice brain. In order to assess functional improvement with 2-DG treatment after ischemic stroke, mice were injected with 2-DG (10 mg/Kg) intraperitoneally 24 h after induction of the stroke and then every day for four weeks. For assessing functional improvement with 2-DG treatment after hemorrhagic stroke, mice were injected with 2-DG (10 mg/Kg) intraperitoneally 24 h after induction of the stroke and then every day for three weeks. ICH was induced as described before (Karuppagounder et al., 2016). Briefly, male C57BL/6 mice (8 to 10 weeks of age; Charles River) were anesthetized with isoflurane (2 to 5%) and placed on a stereotaxic frame. During the procedure, the animal's body temperature was maintained at 37° ° C. with a homeothermic blanket. […] of collagenase (0.075 IU; Sigma) was infused into the right striatum at a flow rate of […] with a nanomite syringe pump (Harvard Apparatus) and a Hamilton syringe. […] The time from which the tape was applied to when the mouse successfully removed it was recorded for each paw. […]"}},
  "note": "“Also recorded” adds a separate entry of the source.",
  "data": [
    {"smiles": "OC[C@H]1OC(O)C[C@@H](O)[C@@H]1O", "note": "(stereo partly drawn) [2-DG, (4R,5S,6R)-6-(hydroxymethyl)oxane-2,4,5-triol]", "values": [
      {"measurement": "endogenous mRNA levels of six Bdnf transcript variants", "setting": "Creb1, Bdnf, Rbbp4; 10 mM, 6 h, mouse primary neurons", "result": "all transcript variants were upregulated"},
      {"measurement": "Creb1 and Bdnf gene expression with AMPK phosphorylation knocked down", "setting": "Creb1, Bdnf, Rbbp4; adenoviral dominant negative AMPK, increasing concentrations of 2-DG", "result": "did not block 2-DG led increase in Creb1 and Bdnf gene expression"},
      {"measurement": "Bdnf gene expression with dominant negative ATF4", "setting": "Creb1, Bdnf, Rbbp4; adenoviral dominant negative ATF4, 2-DG 6 h treatment", "result": "ATF4 knockdown blocked 2-DG led increase in Bdnf gene expression"},
      {"measurement": "plasticity gene program in depolarized primary neurons", "setting": "Creb1, Bdnf, Rbbp4; increasing concentration, co-treated with 25 mM KCl, 6 h", "result": "dose dependent increase in plasticity gene program"},
      {"measurement": "changes in Bdnf gene expression", "setting": "Creb1, Bdnf, Rbbp4; increasing concentrations 1-15 mM, primary cortical neurons", "result": "does dependent"},
      {"measurement": "expression of plasticity genes Creb1, Bdnf and Rbbp4 (mRNA)", "setting": "Creb1, Bdnf, Rbbp4; increasing concentrations, 6 h, mouse primary neurons", "result": "dose-dependent increase"},
      {"measurement": "tape removal test after hemorrhagic stroke", "setting": "ICH mice", "result": "significant improvement; also recorded: significant difference"}
    ]}
  ]
}
